Results as given in publication PMC8365601, “Terphenyl-Based Small-Molecule Inhibitors of Programmed Cell Death-1/Programmed Death-Ligand 1 Protein–Protein Interaction” (Journal of Medicinal Chemistry, 2021).
Read-outs that look alike come from different tables or passages of the source.

Assays:
human PD-L1 = molecular target: T1, human PD-L1 (Homo sapiens, UniProt Q9NZQ7); experiment: 1H NMR titration with human PD-L1; format: binding; settings: molar ratio 1:1
T1 construct: pET-21b plasmid carrying the PD-L1 gene (amino acids 18–134); made in house; host or cells: Escherichia coli BL21
T1 sequence (Q9NZQ7 18-134): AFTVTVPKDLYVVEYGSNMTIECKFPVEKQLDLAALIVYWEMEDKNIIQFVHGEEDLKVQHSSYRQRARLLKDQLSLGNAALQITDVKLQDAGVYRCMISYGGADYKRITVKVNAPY
Protocol: NMR spectra were recorded in PBS pH 7.4 containing 10% (v/v) of D2O added to the samples to provide the lock signal. Water suppression was carried out using the WATERGATE sequence. All the spectra were recorded at 300 K using a Bruker AVANCE 600 MHz spectrometer with the cryo-platform. The spectra were recorded at the ligand/protein ratio of 1:1, unless stated otherwise. The samples were prepared by adding small amounts of a 50 mM ligand stock solution in DMSO to the protein solution (0.20 mL) of PD-L1 fragment at a concentration of 0.2 mM. Spectra were visualized using TopSpin 4.0.2.

PD-1/PD-L1 complex = PD-1/PD-L1 complex (Homo sapiens, UniProt Q9NZQ7); experiment: HTRF assay of PD-1/PD-L1 complex dissociation (CisBio); settings: for IC50: HTRF; for remaining activity at 0.005 µM: 2 h;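 on all read-outs here: human PD-L1 at 5 nM with human PD-1 at 50 nM, TR-FRET signal read after 2 h at room temperature, background removed via negative control and scaled to positive control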
Chain of PD-1/PD-L1 complex (Q9NZQ7 19-238 limits assumed, one chain of several): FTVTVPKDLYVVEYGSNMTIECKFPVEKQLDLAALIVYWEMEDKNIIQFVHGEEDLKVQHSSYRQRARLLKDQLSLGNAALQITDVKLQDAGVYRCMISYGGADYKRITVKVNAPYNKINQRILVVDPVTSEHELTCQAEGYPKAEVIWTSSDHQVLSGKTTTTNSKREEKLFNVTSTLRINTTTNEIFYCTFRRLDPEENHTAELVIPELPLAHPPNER

PD-1/PD-L1 interaction = molecular target: T2, PD-1/PD-L1 interaction (Homo sapiens, UniProt Q9NZQ7); experiment: PD-1/PD-L1 ICB assay (Jurkat-ECs with CHO/TCRAct/PD-L1 cells, luciferase); format: cell-based; settings: for EC50: Jurkat-ECs with CHO/TCRAct/PD-L1, 6 h, SI csv, read-out: Bioactivity (EC50 in the ICB assay)
T2 construct: host or cells: CHO-K1 (CHO/TCRAct/PD-L1) and Jurkat effector cells
T2 sequence (Q9NZQ7 19-290): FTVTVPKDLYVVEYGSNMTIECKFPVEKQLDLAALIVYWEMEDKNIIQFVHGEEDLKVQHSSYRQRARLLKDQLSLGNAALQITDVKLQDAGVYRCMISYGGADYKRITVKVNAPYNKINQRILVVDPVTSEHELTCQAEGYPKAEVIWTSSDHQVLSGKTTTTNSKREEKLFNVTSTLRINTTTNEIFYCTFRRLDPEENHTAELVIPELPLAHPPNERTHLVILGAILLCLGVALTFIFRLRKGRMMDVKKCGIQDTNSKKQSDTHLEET
Protocol: After a successful optimization of the terphenyl compounds, the activity of the optimized molecules 7a and 8a–j in a cellular context was assessed. To this end, we first performed the PD-1/PD-L1 ICB assay. In this assay, T-cell receptor (TCR)-mediated activation of Jurkat effector cells (Jurkat-ECs) is reduced by the presence of PD-L1, exposed at the surface of CHO/TCRAct/PD-L1 cells (Figure 3A).
(§1) The functional assay of the blockade of PD-1/PD-L1 interaction in vitro (PD-1/PD-L1 Blockade Bioassay, Promega) was performed according to the manufacturer’s protocol. CHO/TCRAct/PD-L1 cells or CHO/TCRAct or CHO-K1 cells were seeded on 96-well white plates at the density of 10,000 cells/well and the next day overlaid with Jurkat T cells (20,000 cells/well) in the presence of increasing concentrations of the compounds with DMSO only as a control (the concentration of DMSO was kept constant at 0.1%) or atezolizumab, as a positive control, anti-PD-L1 monoclonal antibody (Selleckchem). The 2.5-fold dilutions of atezolizumab were prepared in the assay buffer (RPMI 1640 + 1% FBS) on the day of the assay. Activation of the Jurkat T cells, reflected by luciferase activity, was monitored by luminescence measurements after 6 h of incubation (37 °C, 5% CO2), and 20 min of additional incubation with the Bio-Glo assay reagent (Promega) at room temperature. The luminescence was read on a Spark microplate reader (Tecan). The data are presented as fold induction of the luminescence signal relative to either untreated (for atezolizumab) or DMSO-treated (for compound) cells. Data points represent mean ± SD values from three to five independent experiments. Half-maximal effective concentrations (EC50 values) were calculated from the Hill curve fitting to the experimental data using Origin Pro 2020 software (OriginLab).

[1] = Cytotoxicity assay toward Jurkat-ECs; format: cell-based; settings: human, Jurkat-EC cells, SI csv
Protocol: The cytotoxicity of compounds was verified toward Jurkat-ECs since these cells provide the readout in the ICB assay and present a much higher degree of susceptibility to the compounds’ toxicity than CHO-K1 cells (not shown). Jurkat-ECs were seeded on 96-well transparent plates in the presence of increasing concentrations of the compounds with DMSO-treated cells as a control. The concentration of DMSO was kept constant (0.1%). After 48 h of incubation, a tetrazolium reagent, Biolog redox dye MIX MB (Biolog), was added according to the manufacturer’s protocol, and the culture plates were incubated for an additional 2 h (37 °C, 5% CO2). The absorbance was measured using a Spark microplate reader (Tecan) at 590 nm with 750 nm as a reference. The data are presented as Jurkat-EC survival relative to DMSO-treated control cells. Data points represent mean ± SD values from three independent experiments. Half-maximal effective concentrations (EC50 values) were calculated from the dose–response curve using OriginPro 2020 (OriginLab) software.

[2] = system: Jurkat-ECs alone or with CHO wt or CHO/TCRAct cells; experiment: ICB assay control where PD-L1 is absent; format: cell-based; settings: 6 h; Figure S1
Protocol: as §1, with “(OriginLab). […]” for “(OriginLab).”
of the Immune Checkpoint Blockade (ICB) assay, where 8h, 8i, and 8j were used to restore the activation of effector Jurkat-ECs. Jurkat-ECs were either kept alone, or contacted with one of the following cell lines: wild type CHO K1 cells (CHO wt), CHO K1 cells expressing TCR Activator (CHO/TCRAct), or CHO K1 cells expressing TCR Activator and […]. The cells were incubated with the indicated concentrations of the compounds for 6 hours and luminescence was measured as an indicator of TCR-dependent activation of Jurkat-ECs. The graphs present fold induction of the luminescence signal relative to DMSO-treated cells. […]

[3] = system: primary CD4+ and CD8+ T cells (PBMCs); experiment: T-cell activation (TCA) assay, PBMCs with CHO/TCRAct/PD-L1 cells, flow cytometry; format: cell-based, human; settings: 48 h; compounds 0.1, 0.5, 2.5 μM; mAbs 5 μg/mL
Protocol: A standard ICB assay relies on artificial Jurkat-ECs, which are surrogates of T-cells. To verify the potential of the compounds to reactivate the PD-L1-blocked primary T cells, a modified assay termed T-cell activation (TCA) was carried out.[32] In this assay, human primary peripheral blood mononuclear cells (PBMCs) are allowed to make contact with CHO/TCRAct/PD-L1 cells alone or in the presence of PD-1/PD-L1 blockers, and the activation of CD4^+ and CD8^+ T cell is monitored by flow cytometry.
Anticoagulant citrate dextrose-A-treated blood from healthy donors was purchased from the Regional Center of Blood Donation and Blood Therapy in Krakow, Poland. PBMCs were isolated from whole blood by density gradient centrifugation using Pancoll human separating solution (PAN-Biotech GmbH, Aidenbach, Germany). The separated cells were washed and resuspended in RPMI 1640 medium (Biowest) containing 10% FBS (Biowest). PBMCs were added at an amount of 3 × 10^5 to CHO, CHO/TCRAct, or CHO/TCRAct/PD-L1 cells preseeded on 24-well plates in the presence of either anti-PD-L1 mAbs (at the final concentration 5 μg/mL): durvalumab (Selleckchem), atezolizumab (Selleckchem), or avelumab (MedChemExpress) or tested compounds at the concentrations 0.1, 0.5, and 2.5 μM. Untreated cells were used as controls for antibody treatment, while DMSO-treated cells [0.1% (v/v)] were used as controls for compound treatment. The cells were incubated for 48 h (37 °C, 5% CO2) and then detached from the plates with TrypLe Select Enzyme (Thermo Fisher). PBMCs were stained for 20 min at room temperature with the antibodies: anti-CD4-FITC, anti-CD8-BV510, anti-CD69-APC, anti-CD25-PE, anti-HLA-DR-PerCP, and anti-PD1-PECy7 (Becton Dickinson Biosciences, BD). Following two washing steps, the cells were analyzed with a FACSCanto II cytometer. Data analysis was carried out with FlowJo software, followed by statistical significance calculations done with Origin Pro 2020 software (OriginLab). Statistical significance was analyzed with one-way analysis of variance (ANOVA), followed by the Fisher’s posthoc test: *p < 0.05, **p < 0.01, […].

[4] = read-out: % of undissociated complex at 5 nM
[5] = read-out: HTRF % of the undissociated complex at 5 nM
[6] = Table 4, <1.00 = limit of quantification reached

Molecule | change of hPD-L1 1H NMR spectrum on adding compound (human PD-L1) | EC50 (PD-1/PD-L1 interaction) [µM] | remaining activity at 0.005 µM (PD-1/PD-L1 complex; [4]) [%] | remaining activity at 0.005 µM (PD-1/PD-L1 complex; [5]) [%] | IC50 (PD-1/PD-L1 complex; [6]) [µM] | EC50 at 48 h [1] [µM] | other results
Cc1c(-c2ccc(CO)cc2)cccc1-c1ccc2c(c1)OCCO2 [4a, (3′-(Benzo-1,4-dioxan-6-yl)-2′-methyl-[1,1′-biphenyl]-4-yl)methanol] | broadening of the hPD-L1 proton signals |  |  |  |  |  | IC50 (PD-1/PD-L1 complex; Table 1): 5.52 ± 0.04 µM
COc1cc(-c2cccc(-c3ccc4c(c3)OCCO4)c2Cl)ccc1CNCCNC(C)=O [7a, N-(2-(((3′-(Benzo-1,4-dioxan-6-yl)-2′-chloro-3-methoxy-[1,1′-biphenyl]-4-yl)methyl)amino)ethyl)acetamide] | broadening of the hPD-L1 proton signals | 2.82 ± 0.4 | 0 | 0 |  | 3.19 ± 0.41 | complex dissociation (PD-1/PD-L1 complex; 5 nM ligand): complete complex dissociation; IC50 (PD-1/PD-L1 complex; Table 3): 0.00082 ± 2e-05 µM
CC(=O)NCCNCc1ccc(-c2cccc(-c3ccc4c(c3)OCCO4)c2Cl)cc1OCC#N [7e, N-(2-(((3′-(Benzo-1,4-dioxan-6-yl)-2′-chloro-3-(cyanomethoxy)-[1,1′-biphenyl]-4-yl)methyl)amino)ethyl)acetamide] | broadening of the hPD-L1 proton signals |  | 1 | 1 |  |  | complex dissociation (PD-1/PD-L1 complex; 5 nM ligand): 99%
avelumab: therapeutic anti-PD-L1 antibody |  |  |  |  |  |  | numbers of PD-1-positive T cells [3]: increases the expression of PD-1 on T-cells
durvalumab: therapeutic anti-PD-L1 antibody |  |  |  |  |  |  | numbers of PD-1-positive T cells [3]: increases the expression of PD-1 on T-cells

Second part, led by results:

change of hPD-L1 1H NMR spectrum on adding compound (human PD-L1) | EC50 (PD-1/PD-L1 interaction) [µM] | remaining activity at 0.005 µM (PD-1/PD-L1 complex; [4]) [%] | remaining activity at 0.005 µM (PD-1/PD-L1 complex; [5]) [%] | IC50 (PD-1/PD-L1 complex; [6]) [µM] | Molecule | EC50 at 48 h [1] [µM] | other results
 |  | 5 | 5 | < 0.001 | COc1cc(-c2cccc(-c3ccc4c(c3)OCCO4)c2Cl)ccc1CN1CCN(C(=O)CN)CC1 [8d, 2-Amino-1-(4-((3′-(benzo-1,4-dioxan-6-yl)-2′-chloro-3-methoxy-[1,1′-biphenyl]-4-yl)methyl)piperazin-1-yl)ethan-1-one] |  | % of the undissociated (remaining) complex (PD-1/PD-L1 complex; 5 nM ligand): 5%
 |  | 88 | 88 | 0.104 ± 0.00217 | COc1cc(-c2cccc(-c3ccc4c(c3)OCCO4)c2Cl)ccc1CN1CCN(S(C)(=O)=O)CC1 [8e, 1-((3′-(Benzo-1,4-dioxan-6-yl)-2′-chloro-3-methoxy-[1,1′-biphenyl]-4-yl)methyl)-4-(methylsulfonyl)piperazine] |  | 
 | 3.28 ± 0.6 | 8 | 8 | < 0.001 | COc1cc(-c2cccc(-c3ccc4c(c3)OCCO4)c2Cl)ccc1CNCCNC(=O)CN [8f, 2-Amino-N-(2-(((3′-(benzo-1,4-dioxan-6-yl)-2′-chloro-3-methoxy-[1,1′-biphenyl]-4-yl)methyl)amino)ethyl)acetamide] | 3.1 ± 0.22 | 
 | 11.1 ± 4.35 | 32 | 32 | 0.00207 ± 4e-05 | COc1cc(-c2cccc(-c3ccc4c(c3)OCCO4)c2Cl)ccc1CNCCNS(C)(=O)=O [8g, N-(2-(((3′-(Benzo-1,4-dioxan-6-yl)-2′-chloro-3-methoxy-[1,1′-biphenyl]-4-yl)methyl)amino)ethyl)methanesulfonamide] | 4.47 ± 0.58 | 
 | 2.57 ± 0.45 | 0 | 0 | < 0.001 | COc1cc(-c2cccc(-c3ccc4c(c3)OCCO4)c2Cl)ccc1CNC(CO)CO [8i, 2-(((3′-(Benzo-1,4-dioxan-6-yl)-2′-chloro-3-methoxy-[1,1′-biphenyl]-4-yl)methyl)amino)propane-1,3-diol] | 4.63 ± 0.35 | selectivity of PD-1/PD-L1-blocking activity versus cytotoxicity (PD-1/PD-L1 interaction; EC50 (tox.) vs EC50 (bio.), Figure 3F): highest selectivity; activation of Jurkat-ECs where PD-L1 is absent [2]: requires the presence of PD-L1
